Legend:
Format in all cases: cell-based, murine
[1] = system: L1210PtR4; experiment: In vitro cytotoxicity, growth inhibition of resistant L1210 cell line L1210PtR4 over 72 hours; conditions: for ID50: 72 hours; for factor of crossresistance (resistance ratio): ID50 resistant / ID50 normal cell line, in parentheses, 4320 min
Experimental: (§1) ID50 values are the concentration of complex required to inhibit the in vitro growth of treated cells to a level of 50% of that for untreated cells over a 72-hour period. The cell lines are suspended in appropriate media at a concentration which results in the cells remaining in log phase growth throughout the treatment period. Serially diluted drug is added to duplicate wells containing the cell growth. After 72 hours of incubation of the cell lines in 5% CO2, the cells are counted and the ID50 values determined.
(§2) Resistance ratio values shown in Table 1 were calculated by dividing the ID50 values against the resistant cell lines by the ID50 values against the normal cell lines. The resistance ratio values shown in the table indicate a measure of the degree of resistance of the cell line to a particular drug.

[2] = system: L1210S; experiment: In vitro cytotoxicity, growth inhibition of normal L1210 cell line over 72 hours; conditions: for factor of crossresistance (resistance ratio): ID50 divided by ID50 against normal cell line, in parentheses, 4320 min; for ID50: normal L1210 cell line, 72 hours
Experimental: as §1, §2

[3] = system: L1210DDP5; experiment: In vitro cytotoxicity, growth inhibition of resistant L1210 cell line L1210DDP5 over 72 hours; conditions: for ID50: 72 hours; for factor of crossresistance (resistance ratio): ID50 resistant / ID50 normal cell line, in parentheses, 4320 min
Experimental: as §1, §2

[4] = system: cisplatin-resistant cells; experiment: In vitro activity against cisplatin-resistant L1210 cells compared with cisplatin; conditions: in words; for effectiveness against cisplatin-resistant cells: compared with cisplatin
Experimental: as §1, §2

[5] = system: L1210 cell lines; experiment: In vitro antitumor activity against L1210 cell lines compared with cisplatin; conditions: in words
Experimental: as §1, §2

[6] = system: L1210DACH; experiment: In vitro cytotoxicity, growth inhibition of Pt(DACH)Cl2-resistant L1210 cell line over 72 hours; conditions: for ID50 / factor of crossresistance (resistance ratio): L1210DACH; for ID50: 72 hours; for factor of crossresistance (resistance ratio): ID50 resistant / ID50 normal cell line, in parentheses; for factor of crossresistance (resistance ratio) / cross resistance to Pt(DACH)Cl2-resistant L1210 cells in culture: 4320 min
Experimental: as §1, §2

Compound	ID50 [1] [µg/mL]	factor of crossresistance (resistance ratio) [1]	factor of crossresistance (resistance ratio) [2]	ID50 [2] [µg/mL]	ID50 [3] [µg/mL]	factor of crossresistance (resistance ratio) [3]	effectiveness against cisplatin-resistant cells [4]	cross resistance to cisplatin [4]	antitumor activity compared to cisplatin (potency and response) [5]	ID50 [6] [µg/mL]	factor of crossresistance (resistance ratio) [6]	cross resistance to Pt(DACH)Cl2-resistant L1210 cells in culture [6] [fold]
(SP-4-2)-Dichloro(1,5-pentanediamine-N,N')-platinum [Example 1]	1.13	2.6	1	0.43	1.58	3.7	more effective than cisplatin against cisplatin-resistant cells	some degree of cross resistance to cisplatin	superior to cisplatin both in potency and response	1.17	2.7	2.7
N.N.[Cl][Pt][Cl] [Cisplatin, cis-diaminedichloroplatinum(II), reference compound]	3.61			0.34	5.63					0.467		
NC1CCCCC1N.[Cl][Pt][Cl] (stereo not drawn) [[Pt(trans-l-DACH)Cl2], [SP-4-2-(1R-trans)]-dichloro(1,2-cyclohexanediamine-N,N')platinum, reference compound]	0.159	1.8	1	0.088	0.176	2				2.67	30	30
(SP-4-2)-Dichloro(1,6-hexanediamine-N,N')-platinum [Example 2]	2.8	3	1	0.93	3.7	4	more effective than cisplatin against cisplatin-resistant cells	some degree of cross resistance to cisplatin	superior to cisplatin both in potency and response	2.13	2.3	2.3
